Test results taken from US10398697B2, “Solid solution comprising (6S)-5-methyl tetrahydrofolic acid or salt thereof, and preparation and use thereof” (priority 2014, dated 2019).
Read-outs that look alike come from different tables or passages of the source.

How the values were obtained:
mice [1] = assay: Acute toxicity study of JK12A; type: in vivo; details: dose of 2000 mg/kg
[2] = system: T lymphocyte proliferation; assay: T lymphocyte proliferation, stimulus with Con A (CPM); type: cell-based
T lymphocyte = assay: Cell survival rate (OD) of lymphocytes with JK12A; type: cell-based
mice [3] = assay: Single dose toxicity of JK1303, kidney findings after 14 days; type: in vivo; details: 14 days after a single dose of 1000 mg/kg
[4] = acute toxicity test data published at present; cited from earlier work
mice [5] = details: after harmful impurities eliminated by the technology of the invention
[6] = Concentration determined 0.164 M
[7] = Concentration determined 0.41 M
[8] = Concentration determined 1.024 M
[9] = Concentration determined 2.56 M
[10] = Concentration determined 16.0 M
[11] = Concentration determined 100.000 µM
[12] = Amount of VC 0, day 0, 25° C. and 40% humidity
[13] = Amount of VC 0, day 7, 25° C. and 40% humidity
[14] = Amount of VC 0, day 15, 25° C. and 40% humidity
[15] = Amount of VC 0, day 30, 25° C. and 40% humidity
[16] = Amount of VC 0, day 60, 25° C. and 40% humidity
[17] = Amount of VC 20%, day 0, 25° C. and 40% humidity
[18] = Amount of VC 20%, day 7, 25° C. and 40% humidity
[19] = Amount of VC 20%, day 15, 25° C. and 40% humidity
[20] = Amount of VC 20%, day 30, 25° C. and 40% humidity
[21] = Amount of VC 20%, day 60, 25° C. and 40% humidity
[22] = Amount of VC 100%, day 0, 25° C. and 40% humidity
[23] = Amount of VC 100%, day 7, 25° C. and 40% humidity
[24] = Amount of VC 100%, day 15, 25° C. and 40% humidity
[25] = Amount of VC 100%, day 30, 25° C. and 40% humidity
[26] = Amount of VC 100%, day 60, 25° C. and 40% humidity
[27] = Amount of VC 500%, day 0, 25° C. and 40% humidity
[28] = Amount of VC 1000%, day 0, 25° C. and 40% humidity
[29] = Amount of VC 10000%, day 0, 25° C. and 40% humidity

For `CN1C2CNC3=NC(N)=NCC31N(c1ccc(C(=O)NC(CCC(=O)O)C(=O)O)cc1)C2` (centres unmarked) [JK12A], the “anatomical findings in liver and kidney” value (mice [1]) was “no significant changes”, the “effect on T lymphocyte proliferation” value [2] was “significant inhibitory effect” and the “T cell proliferation Comprehensive evaluation Percent enhancement/inhibition” value [2, 6] was −8%. For the same compound, the “T lymphocyte Stimulus with Con A Mean CPM” value (shortened to “T lymphocyte Stimulus”) [2, 6] was 40459 CPM, the “T cell proliferation Comprehensive evaluation Percent enhancement/inhibition” value [2, 7] was −68% and the “T lymphocyte Stimulus” value [2, 7] was 14073 CPM. The “T cell proliferation Comprehensive evaluation Percent enhancement/inhibition” value [2, 8] was −60%, the “T lymphocyte Stimulus” value [2, 8] was 17590 CPM and the “T cell proliferation Comprehensive evaluation Percent enhancement/inhibition” value [2, 9] was −42%. For the same compound, the “T lymphocyte Stimulus” value [2, 9] was 25507 CPM, the “T cell proliferation Comprehensive evaluation Percent enhancement/inhibition” value ([2]; Concentration determined 6.4 M) was −30% and the “T lymphocyte Stimulus” value ([2]; Concentration determined 6.4 M) was 30784 CPM. The “T cell proliferation Comprehensive evaluation Percent enhancement/inhibition” value [2, 10] was −18%, the “T lymphocyte Stimulus” value [2, 10] was 36061 CPM and the “T cell proliferation Comprehensive evaluation Percent enhancement/inhibition” value ([2]; Concentration determined […]) was −1%. The “T lymphocyte Stimulus” value ([2]; Concentration determined […]) was 43537 CPM, the Cell survival rate (T lymphocyte; [11]) was 73% and the “Mean OD” value (T lymphocyte; [11]) was 0.089. The Cell survival rate (T lymphocyte; [7]) was 75%, the “Mean OD” value (T lymphocyte; [7]) was 0.052 and the Cell survival rate (T lymphocyte; [8]) was 59%. The “Mean OD” value (T lymphocyte; [8]) was 0.073, the Cell survival rate (T lymphocyte; [9]) was 62% and the “Mean OD” value (T lymphocyte; [9]) was 0.076. For the same compound, the Cell survival rate (T lymphocyte; Concentration determined 6.4 M) was 84%, the “Mean OD” value (T lymphocyte; Concentration determined 6.4 M) was 0.103 and the Cell survival rate (T lymphocyte; [10]) was 92%. The “Mean OD” value (T lymphocyte; [10]) was 0.113, the Cell survival rate (T lymphocyte; Concentration determined […]) was 89% and the “Mean OD” value (T lymphocyte; Concentration determined […]) was 0.109.
For `CN1C2CNC3=NC(N)=NCC31N(c1ccc(C(=O)O)cc1)C2` (centres unmarked) [JK1303], the “anatomical finding in the renal tubules” value (mice [3]) was “a large number of vacuoles” and the renal toxicity finding (mice [3]) was “severe renal tubular necrosis”.
In the case of “(6S)-5-methyl tetrahydrofolic acid calcium salt [Example 11]”, the “(6S)-5-methyl tetrahydrofolic acid calcium salt content” value [12] is reported as 99.95%, the JK12A content [12] is reported as 0.03% and the “(6S)-5-methyl tetrahydrofolic acid calcium salt content” value [13] is reported as 99.90%. The JK12A content [13] was 0.06%, the “(6S)-5-methyl tetrahydrofolic acid calcium salt content” value [14] was 99.85% and the JK12A content [14] was 0.12%. For the same compound, the “(6S)-5-methyl tetrahydrofolic acid calcium salt content” value [15] was 99.63%, the JK12A content [15] was 0.25% and the “(6S)-5-methyl tetrahydrofolic acid calcium salt content” value [16] was 99.40%. For the same compound, the JK12A content [16] was 0.46%, the “(6S)-5-methyl tetrahydrofolic acid calcium salt content” value [17] was 99.95% and the JK12A content [17] was 0.03%. For the same compound, the “(6S)-5-methyl tetrahydrofolic acid calcium salt content” value [18] was 99.94%, the JK12A content [18] was 0.04% and the “(6S)-5-methyl tetrahydrofolic acid calcium salt content” value [19] was 99.89%. The JK12A content [19] was 0.08%, the “(6S)-5-methyl tetrahydrofolic acid calcium salt content” value [20] was 99.71% and the JK12A content [20] was 0.17%. The “(6S)-5-methyl tetrahydrofolic acid calcium salt content” value [21] was 99.50%, the JK12A content [21] was 0.22% and the “(6S)-5-methyl tetrahydrofolic acid calcium salt content” value [22] was 99.95%. For the same compound, the JK12A content [22] was 0.03%, the “(6S)-5-methyl tetrahydrofolic acid calcium salt content” value [23] was 99.94% and the JK12A content [23] was 0.03%. The “(6S)-5-methyl tetrahydrofolic acid calcium salt content” value [24] was 99.90%, the JK12A content [24] was 0.05% and the “(6S)-5-methyl tetrahydrofolic acid calcium salt content” value [25] was 99.90%. The JK12A content [25] was 0.05%, the “(6S)-5-methyl tetrahydrofolic acid calcium salt content” value [26] was 99.86% and the JK12A content [26] was 0.10%. For the same compound, the “(6S)-5-methyl tetrahydrofolic acid calcium salt content” value [27] was 99.95%, the JK12A content [27] was 0.03% and the “(6S)-5-methyl tetrahydrofolic acid calcium salt content” value (Amount of VC 500%, day 7, 25° C. and 40% humidity) was 100.00%. For the same compound, the “(6S)-5-methyl tetrahydrofolic acid calcium salt content” value (Amount of VC 500%, day 15, 25° C. and 40% humidity) was 100.00%, the “(6S)-5-methyl tetrahydrofolic acid calcium salt content” value (Amount of VC 500%, day 30, 25° C. and 40% humidity) was 99.98% and the “(6S)-5-methyl tetrahydrofolic acid calcium salt content” value (Amount of VC 500%, day 60, 25° C. and 40% humidity) was 99.96%. The “(6S)-5-methyl tetrahydrofolic acid calcium salt content” value [28] was 99.95%, the JK12A content [28] was 0.03% and the “(6S)-5-methyl tetrahydrofolic acid calcium salt content” value (Amount of VC 1000%, day 7, 25° C. and 40% humidity) was 100.00%. For the same compound, the “(6S)-5-methyl tetrahydrofolic acid calcium salt content” value (Amount of VC 1000%, day 15, 25° C. and 40% humidity) was 100.00%, the “(6S)-5-methyl tetrahydrofolic acid calcium salt content” value (Amount of VC 1000%, day 30, 25° C. and 40% humidity) was 100.00% and the “(6S)-5-methyl tetrahydrofolic acid calcium salt content” value (Amount of VC 1000%, day 60, 25° C. and 40% humidity) was 100.00%. The “(6S)-5-methyl tetrahydrofolic acid calcium salt content” value [29] was 99.95%, the JK12A content [29] was 0.03% and the “(6S)-5-methyl tetrahydrofolic acid calcium salt content” value (Amount of VC 10000%, day 7, 25° C. and 40% humidity) was 100.00%. For the same compound, the “(6S)-5-methyl tetrahydrofolic acid calcium salt content” value (Amount of VC 10000%, day 15, 25° C. and 40% humidity) was 100.00%, the “(6S)-5-methyl tetrahydrofolic acid calcium salt content” value (Amount of VC 10000%, day 30, 25° C. and 40% humidity) was 100.00% and the “(6S)-5-methyl tetrahydrofolic acid calcium salt content” value (Amount of VC 10000%, day 60, 25° C. and 40% humidity) was 100.00%.
For calcium (6S)-5-methyltetrahydrofolate, the “LD50 (median lethal dose)” value [4] is given as 2000 mg/kg, the response of mice (mice [5]; dosage of 15000 mg/kg) is given as “no abnormal response” and the “maximum tolerable dose (MTD)” value (mice [5]; mice) is given as “greater than 15 g/kg”.
